The source of these data is patent publication US20160303009A1, “HAIR CARE COMPOSITION” (CONOPCO, INC., D/B/A UNILEVER, priority 2013, published 2016).

For this assay, the system named is trypsin. Kind of assay: Trypsin activity, fluorescence assay (EnzChek Protease Assay Kit E6639). In kind it is biochemical. As to conditions: trypsin 100 μg/ml, 50 mM Tris-HCl pH 8.0. The procedure: Typsin activity was assessed using a commercial assay employing fluorescence measurement (EnzChek® Protease Assay Kit E6639 from Molecular Probes). The assayed solutions contained trypsin (100 μg/ml) and various amounts of the zinc salts in 50 mM Tris-HCl (pH 8.0).

Turning to Zinc Gluconate, the Protease inhibition is, setting by setting: (salt concentration 0.0001 wt %) −4%; (salt concentration 0.001 wt %) 10%; (salt concentration 0.01 wt %) 28%; (salt concentration 0.1 wt %) 94%; (salt concentration 1 wt %) 94%.

Consider `O.O.O.O.O.O.O.O=S(=O)([O-])[O-].[Zn+2]` [Zinc Sulfate Heptahydrate], for which the Protease inhibition came out at 4% (salt concentration 0.0001 wt %); 14% (salt concentration 0.001 wt %); 33% (salt concentration 0.01 wt %); 92% (salt concentration 0.1 wt %); 93% (salt concentration 1 wt %).

Take `[Cl-].[Cl-].[Zn+2]` [Zinc Chloride]: the Protease inhibition reads like this: (salt concentration 0.0001 wt %) 7%; (salt concentration 0.001 wt %) 20%; (salt concentration 0.01 wt %) 69%; (salt concentration 0.1 wt %) 93%; (salt concentration 1 wt %) 96%.
